In the supplement of paper PMC10307832:

Tests used:
Test in all cases: relative viability (nuclei count vs DMSO), 5 days (fraction); higher = more cells survive
Idelalisib + Navitoclax = compound: CC[C@H](Nc1ncnc2[nH]cnc12)c1nc2cccc(F)c2c(=O)n1-c1ccccc1 [Idelalisib] + CC1(C)CCC(c2ccc(Cl)cc2)=C(CN2CCN(c3ccc(C(=O)NS(=O)(=O)c4ccc(N[C@H](CCN5CCOCC5)CSc5ccccc5)c(S(=O)(=O)C(F)(F)F)c4)cc3)CC2)C1 [Navitoclax] (partner 0.5 µM)
How it was run: (§1)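 Lung cancer cell lines were seeded in 1536-well plates and dosed by pin tool the next day, with either a single drug or a fixed anchor-drug dose combined with five library-drug doses (not always all listed) spaced in √10 steps. Five days later, one step fixed the cells and stained their nuclei (final 0.05% Triton X-100, 1% formaldehyde, 1 ug/ml Hoechst), and nuclei were counted on 4× images. Relative viability is the nuclei count in treated wells divided by the count in vehicle wells, and each value is the median of duplicate plates.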

Pemetrexed + Trametinib = compound: Nc1nc2[nH]cc(CCc3ccc(C(=O)N[C@@H](CCC(=O)O)C(=O)O)cc3)c2c(=O)[nH]1 [Pemetrexed] + CC(=O)Nc1cccc(-n2c(=O)n(C3CC3)c(=O)c3c(Nc4ccc(I)cc4F)n(C)c(=O)c(C)c32)c1 [Trametinib] (partner 0.02 µM)
How it was run: as §1

Pemetrexed + Phenformin = compound: Nc1nc2[nH]cc(CCc3ccc(C(=O)N[C@@H](CCC(=O)O)C(=O)O)cc3)c2c(=O)[nH]1 [Pemetrexed] + N=C(N)NC(=N)NCCc1ccccc1 [Phenformin] (partner 250 µM)
How it was run: as §1

Pemetrexed + Vorinostat = compound: Nc1nc2[nH]cc(CCc3ccc(C(=O)N[C@@H](CCC(=O)O)C(=O)O)cc3)c2c(=O)[nH]1 [Pemetrexed] + O=C(CCCCCCC(=O)Nc1ccccc1)NO [Vorinostat] (partner 1 µM)
How it was run: as §1

Cell Line | relative viability (Idelalisib + Navitoclax; first compound 0.04 µM) | relative viability (Idelalisib + Navitoclax; first compound 0.1265 µM) | relative viability (Idelalisib + Navitoclax; first compound 0.4 µM) | relative viability (Idelalisib + Navitoclax; first compound 1.265 µM) | relative viability (Idelalisib + Navitoclax; first compound 4 µM) | relative viability (Pemetrexed + Trametinib; first compound 0.002 µM) | relative viability (Pemetrexed + Trametinib; first compound 0.006325 µM) | relative viability (Pemetrexed + Trametinib; first compound 0.02 µM) | relative viability (Pemetrexed + Trametinib; first compound 0.06325 µM) | relative viability (Pemetrexed + Trametinib; first compound 0.2 µM) | relative viability (Pemetrexed + Phenformin; first compound 0.002 µM) | relative viability (Pemetrexed + Phenformin; first compound 0.006325 µM) | relative viability (Pemetrexed + Phenformin; first compound 0.02 µM) | relative viability (Pemetrexed + Phenformin; first compound 0.06325 µM) | relative viability (Pemetrexed + Phenformin; first compound 0.2 µM) | relative viability (Pemetrexed + Vorinostat; first compound 0.002 µM) | relative viability (Pemetrexed + Vorinostat; first compound 0.006325 µM) | relative viability (Pemetrexed + Vorinostat; first compound 0.02 µM) | relative viability (Pemetrexed + Vorinostat; first compound 0.06325 µM) | relative viability (Pemetrexed + Vorinostat; first compound 0.2 µM)
SK-MES-1 | 0.995 | 1.41 | 1.12 | 1.08 | 0.867 | 0.553 | 0.568 | 0.618 | 0.559 | 0.539 | 0.647 | 0.638 | 0.705 | 0.642 | 0.614 | 1.07 | 0.994 | 1.18 | 1.11 | 0.993
NCI-H2087 | 0.885 | 0.938 | 0.98 | 1.03 | 0.823 | 0.145 | 0.173 | 0.215 | 0.212 | 0.249 | 0.397 | 0.446 | 0.475 | 0.473 | 0.47 | 0.662 | 0.751 | 1.06 | 0.591 | 0.757
BEN | 0.0556 | 0.0685 | 0.0581 | 0.0746 | 0.0521 | 1.19 | 0.942 | 1.08 | 0.884 | 1.05 | 0.288 | 0.283 | 0.255 | 0.272 | 0.275 | 0.6 | 0.578 | 0.587 | 0.573 | 0.555
NCI-H3122 | 1.07 | 1.04 | 1.02 | 0.995 | 0.961 | 0.255 | 0.236 | 0.252 | 0.218 | 0.202 | 0.419 | 0.37 | 0.374 | 0.336 | 0.205 | 1.12 | 0.893 | 0.96 | 0.755 | 0.454
LCLC-97TM1 | 0.468 | 0.453 | – | 0.335 | 0.337 | 0.21 | 0.189 | 0.179 | 0.211 | 0.184 | 0.432 | 0.392 | 0.466 | 0.44 | 0.396 | 0.711 | 0.559 | 0.765 | 0.803 | 0.163
NCI-H2228 | 1.04 | 0.569 | 0.742 | 1.03 | 0.666 | 0.509 | 0.611 | 0.597 | 0.318 | 0.285 | 0.308 | – | 0.268 | 0.2 | 0.184 | 0.807 | 0.493 | 0.749 | 0.413 | 0.296
COR-L23 | 1.07 | 0.965 | 1.05 | 1.11 | 1.02 | 0.581 | 0.569 | 0.733 | 0.206 | 0.152 | 0.394 | 0.431 | 0.47 | 0.26 | 0.173 | 0.474 | 0.398 | 0.424 | 0.186 | 0.136
EMC-BAC-2 | 1.13 | 1.2 | 1.12 | 1.21 | 1.06 | 0.826 | 0.755 | 0.986 | 0.807 | 0.618 | 0.481 | 0.523 | 0.615 | 0.58 | 0.423 | 0.397 | 0.734 | 0.539 | 0.402 | 0.256
